Laboratory results reported in patent US10947222B2, “Indole derivatives useful as inhibitors of diacylglyceride O-acyltransferase 2” (Merck Sharp & Dohme Corp., priority 2016, dated 2021).

What follows are compounds tested against human DGAT2 (hDGAT2) (Homo sapiens (Human), UniProt Q96PD7) (assay: DGAT2 enzymatic activity assay (triolein formation, LC/MS/MS)). Settings: Sf-9 membrane prep expressing hDGAT2; 25 μM diolein, 10 μM oleoyl-CoA; triolein by LC/MS/MS.
Assay type: biochemical
Protocol: Sf-9 insect cells were maintained in Grace's insect cell culture medium with 10% heated-inactivated fetal bovine serum, 1% Pluronic F-68 and 0.14 μg/ml Kanamycine sulfate in Erlenmeyer flasks at 28° C. in a shaker incubator. After infection with untagged baculovirus expressing human DGAT2 (hDGAT2) at multiplicity of infection (MOI) 0.1 for 48 hours, cells were harvested. Cell pellets were suspended in buffer containing 10 mM Tris-HCl (pH 7.5), 1 mM EDTA (pH 8.0), 250 mM sucrose and Complete Protease Inhibitor Cocktail (Roche Diagnostics Corp., Indianapolis, Ill.), and sonicated on ice. Membrane fractions were isolated by ultracentrifugation (100,000×g pellet), resuspended in the same buffer, and frozen (−80° C.) for later use. The protein concentration was determined with the BCA Protein Assay kit (Pierce Biotechnology Inc., Rockford, Ill.). Expression of protein levels was analyzed by immunoblotting with goat polyclonal DGAT2 antibody C-15 and donkey anti-goat IgG HRP (Santa Cruz Biotechnology, Inc., Santa Cruz, Calif.) followed by detection with ECL reagent (GE Healthcare, Piscataway, N.J.).
LC/MS/MS analyses were performed using Thermal Fisher's LX4-TSQ Vantage system. This system consists of an Agilent binary high-performance liquid chromatography (HPLC) pumps and a TSQ Vantage triple quadrupole MS/MS instrument. For each sample, 2 μL samples from the top organic layer of in-plate liquid-liquid extraction were injected onto a Thermo Betabasic C4 column (2.1 mm×20 mm, 5 μm particle size). The samples were then eluted using the following conditions; mobile phase: methanol/water with 0.1% ammonium format=92/8 (v/v), flow rate: 1 mL/min, temperature: 25 C. Data was acquired in positive mode using a heated electrospray ionization (HESI) interface. The operational parameters for the TSQ Vantage MS/MS instrument were a spray voltage of 3000 V, capillary temperature of 280° C., vaporizer temperature 400° C., shealth gas 60 arbitrary unit, Aux gas 40 arbitrary units, S-lens 113 and collision gas 0.16 Pascals. […] (SRM) chromatograms of triolein (Q1:902.9>Q3:602.3) and internal standard (Q1:902.9>Q3:602.3) were collected for 40 sec. The peak area was integrated by Xcalibur Quan software. The ratio between the triolein generated in the reaction and spiked in internal standard was used to generate percentage inhibition and IC50 values. Compound percentage inhibition was calculated by the following formula: Inhibition %/=1−[(compound response−low control)/(high control−low control)]×100%. Potent compounds were titrated and IC50 were calculated by 4 parameter sigmoidal curve fitting formula.
DGAT2 activity was determined by measuring the amount of enzymatic product triolein (1,2,3-Tri(cis-9-octadecenoyl)glycerol) using the membrane prep mentioned above. The assay was carried out in deep well 384 plates in a final volume of 40 μL at rt. The assay mixture contained the following: assay buffer (100 mM Tris.Cl, pH 7.0, 20 mM MgCl2, 5% ethanol), 25 μM of diolein, 10 μM of oleoyl-CoA and 10 ng/μL of DGAT2 membrane.

Chain of human DGAT2 (hDGAT2) (Q96PD7 whole entry): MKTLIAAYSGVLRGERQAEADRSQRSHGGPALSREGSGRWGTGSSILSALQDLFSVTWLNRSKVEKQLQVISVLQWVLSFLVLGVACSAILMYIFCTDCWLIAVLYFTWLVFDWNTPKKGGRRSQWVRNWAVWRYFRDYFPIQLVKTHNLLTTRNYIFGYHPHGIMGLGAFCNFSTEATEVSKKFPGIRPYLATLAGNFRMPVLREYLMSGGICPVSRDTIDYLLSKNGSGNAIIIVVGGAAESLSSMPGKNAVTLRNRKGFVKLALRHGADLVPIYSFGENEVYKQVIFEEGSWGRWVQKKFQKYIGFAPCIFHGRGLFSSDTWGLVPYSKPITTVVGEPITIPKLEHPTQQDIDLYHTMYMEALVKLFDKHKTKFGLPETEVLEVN

SMILES	IC50
CC1(NC(=O)c2ccc3c(-c4ccccc4Cl)c(C#N)n(-c4ccc(F)cc4)c3c2)CCS(=O)(=O)C1 (single isomer, unassigned; enantiomer a) [Example 9-A, 3-(2-chlorophenyl)-2-cyano-1-(4-fluorophenyl)-N-(3-methyl-1,1-dioxidotetrahydrothiophen-3-yl)-1H-indole-6-carboxamide (Enantiomer A)]	448 nM
CC1(NC(=O)c2ccc3c(-c4cccc(OC(F)F)c4)cn(-c4ccc(F)cn4)c3c2)CCS(=O)(=O)C1 (single isomer, unassigned; enantiomer a) [Example 10-A, 3-(3-(difluoromethoxy)phenyl)-1-(5-fluoropyridin-2-yl)-N-(3-methyl-1,1-dioxidotetrahydrothiophen-3-yl)-1H-indole-6-carboxamide (enantiomer A)]	0.94 nM
O=C(NC1CCS(=O)(=O)C1)c1ccc2c(-c3cccc(C4CC4)c3)cn(-c3ccc(F)cn3)c2c1 (single isomer, unassigned; enantiomer a) [Example 11-A, 3-(3-cyclopropylphenyl)-N-(1,1-dioxidotetrahydrothiophen-3-yl)-1-(5-fluoropyridin-2-yl)-1H-indole-6-carboxamide (enantiomer A)]	2.1 nM
CC1(NC(=O)c2ccc3c(-c4cccc(C5CC5)c4)cn(-c4ccc(F)cn4)c3c2)CCS(=O)(=O)C1 (single isomer, unassigned; enantiomer a) [Example 12-A, 3-(3-cyclopropylphenyl)-1-(5-fluoropyridin-2-yl)-N-(3-methyl-1,1-dioxidotetrahydrothiophen-3-yl)-1H-indole-6-carboxamide (enantiomer A)]	0.79 nM
CC1(NC(=O)c2ccc3c(-c4ccccc4Cl)cn(-c4ccc(F)cc4)c3c2)CCS(=O)(=O)C1 (single isomer, unassigned; enantiomer b) [Example 1-B, 3-(2-chlorophenyl)-1-(4-fluorophenyl)-N-(3-methyl-1,1-dioxidotetrahydrothiophen-3-yl)-1H-indole-6-carboxamide (Enantiomer B, slow)]	6.6 nM
Cc1c(-c2ccccc2Cl)c2ccc(C(=O)NC3(C)CCS(=O)(=O)C3)cc2n1-c1ccc(F)cc1 (single isomer, unassigned; enantiomer b) [Example 8-B, 3-(2-chlorophenyl)-1-(4-fluorophenyl)-2-methyl-N-(3-methyl-1,1-dioxidotetrahydrothiophen-3-yl)-1H-indole-6-carboxamide (Enantiomer B)]	692 nM
CC1(NC(=O)c2ccc3c(-c4ccccc4Cl)c(C#N)n(-c4ccc(F)cc4)c3c2)CCS(=O)(=O)C1 (single isomer, unassigned; enantiomer b) [Example 9-B, 3-(2-chlorophenyl)-2-cyano-1-(4-fluorophenyl)-N-(3-methyl-1,1-dioxidotetrahydrothiophen-3-yl)-1H-indole-6-carboxamide (Enantiomer B)]	235 nM
CC1(NC(=O)c2ccc3c(-c4cccc(OC(F)F)c4)cn(-c4ccc(F)cn4)c3c2)CCS(=O)(=O)C1 (single isomer, unassigned; enantiomer b) [Example 10-B, 3-(3-(difluoromethoxy)phenyl)-1-(5-fluoropyridin-2-yl)-N-(3-methyl-1,1-dioxidotetrahydrothiophen-3-yl)-1H-indole-6-carboxamide (enantiomer B)]	1 nM

More lines, now with the values ahead:

IC50	SMILES
1.8 nM	O=C(NC1CCS(=O)(=O)C1)c1ccc2c(-c3cccc(OC(F)F)c3)cn(-c3ccc(F)cn3)c2c1 (single isomer, unassigned; enantiomer a) [Example 13-A, 3-(3-(difluoromethoxy)phenyl)-N-(1,1-dioxidotetrahydrothiophen-3-yl)-1-(5-fluoropyridin-2-yl)-1H-indole-6-carboxamide (enantiomer A)]
16 nM	CC1(NC(=O)c2ccc3c(-c4ccccc4Cl)cn(-c4ccc(F)cn4)c3c2)CCS(=O)(=O)C1 (single isomer, unassigned; enantiomer a) [Example 14-A, 3-(2-chlorophenyl)-1-(5-fluoropyridin-2-yl)-N-(3-methyl-1,1-dioxidotetrahydrothiophen-3-yl)-1H-indole-6-carboxamide (Enantiomer A, Fast)]
78 nM	CC1(NC(=O)c2ccc3c(-c4ccccc4Cl)cn(-c4ncc(F)cn4)c3c2)CCS(=O)(=O)C1 (single isomer, unassigned; enantiomer a) [Example 15-A, 3-(2-chlorophenyl)-1-(5-fluoropyrimidin-2-yl)-N-(3-methyl-1,1-dioxidotetrahydrothiophen-3-yl)-1H-indole-6-carboxamide (enantiomer A, fast)]
2.7 nM	CC1(NC(=O)c2ccc3c(-c4cccc(C5CC5)c4)cn(-c4ncc(F)cn4)c3c2)CCS(=O)(=O)C1 (single isomer, unassigned; enantiomer a) [Example 16-A, 3-(3-cyclopropylphenyl)-1-(5-fluoropyrimidin-2-yl)-N-(3-methyl-1,1-dioxidotetrahydrothiophen-3-yl)-1H-indole-6-carboxamide (enantiomer A)]
3.3 nM	O=C(NC1CCS(=O)(=O)C1)c1ccc2c(-c3cccc(C4CC4)c3)cn(-c3ncc(F)cn3)c2c1 (single isomer, unassigned; enantiomer a) [Example 17-A, 3-(3-cyclopropylphenyl)-N-(1,1-dioxidotetrahydrothiophen-3-yl)-1-(5-fluoropyrimidin-2-yl)-1H-indole-6-carboxamide (enantiomer A)]
1.7 nM	CC1(NC(=O)c2ccc3c(-c4cccc(OC(F)F)c4)cn(-c4ncc(F)cn4)c3c2)CCS(=O)(=O)C1 (single isomer, unassigned; enantiomer a) [Example 18-A, 3-(3-(difluoromethoxy)phenyl)-1-(5-fluoropyrimidin-2-yl)-N-(3-methyl-1,1-dioxidotetrahydrothiophen-3-yl)-1H-indole-6-carboxamide (enantiomer A)]
1.6 nM	O=C(NC1CCS(=O)(=O)C1)c1ccc2c(-c3cccc(OC(F)F)c3)cn(-c3ncc(F)cn3)c2c1 (single isomer, unassigned; enantiomer a) [Example 19-A, 3-(3-(difluoromethoxy)phenyl)-N-(1,1-dioxidotetrahydrothiophen-3-yl)-1-(5-fluoropyrimidin-2-yl)-1H-indole-6-carboxamide (enantiomer A)]
2.9 nM	O=C(NC1CCS(=O)(=O)C1)c1ccc2c(-c3cccc(C4CC4)c3)cn(-c3ccc(F)cc3)c2c1 (single isomer, unassigned; enantiomer a) [Example 26-A, 3-(3-Cyclopropylphenyl)-N-(1,1-dioxidotetrahydrothiophen-3-yl)-1-(4-fluorophenyl)-1H-indole-6-carboxamide (Enantiomer A)]
0.52 nM	O=C(NC1CCS(=O)(=O)C1)c1ccc2c(-c3cccc(OC(F)F)c3)cn(-c3ccc(F)cc3)c2c1 (single isomer, unassigned; enantiomer a) [Example 27-A, 3-(3-(difluoromethoxy)phenyl)-N-(1,1-dioxidotetrahydrothiophen-3-yl)-1-(4-fluorophenyl)-1H-indole-6-carboxamide (enantiomer A)]
